Patent US20050164370A1 (priority 2003, published 2005)

How the values were obtained:
cytokinin receptor AHK2Δ = biological target: T1, cytokinin receptor AHK2Δ (Arabidopsis thaliana, UniProt Q9C5U2); details: TM182-AHK2Δ, DOLU+Glu agar, 1 nM to 100 μM tested, 30° C. for 30 hours
T1 sequence (Q9C5U2 196-1176): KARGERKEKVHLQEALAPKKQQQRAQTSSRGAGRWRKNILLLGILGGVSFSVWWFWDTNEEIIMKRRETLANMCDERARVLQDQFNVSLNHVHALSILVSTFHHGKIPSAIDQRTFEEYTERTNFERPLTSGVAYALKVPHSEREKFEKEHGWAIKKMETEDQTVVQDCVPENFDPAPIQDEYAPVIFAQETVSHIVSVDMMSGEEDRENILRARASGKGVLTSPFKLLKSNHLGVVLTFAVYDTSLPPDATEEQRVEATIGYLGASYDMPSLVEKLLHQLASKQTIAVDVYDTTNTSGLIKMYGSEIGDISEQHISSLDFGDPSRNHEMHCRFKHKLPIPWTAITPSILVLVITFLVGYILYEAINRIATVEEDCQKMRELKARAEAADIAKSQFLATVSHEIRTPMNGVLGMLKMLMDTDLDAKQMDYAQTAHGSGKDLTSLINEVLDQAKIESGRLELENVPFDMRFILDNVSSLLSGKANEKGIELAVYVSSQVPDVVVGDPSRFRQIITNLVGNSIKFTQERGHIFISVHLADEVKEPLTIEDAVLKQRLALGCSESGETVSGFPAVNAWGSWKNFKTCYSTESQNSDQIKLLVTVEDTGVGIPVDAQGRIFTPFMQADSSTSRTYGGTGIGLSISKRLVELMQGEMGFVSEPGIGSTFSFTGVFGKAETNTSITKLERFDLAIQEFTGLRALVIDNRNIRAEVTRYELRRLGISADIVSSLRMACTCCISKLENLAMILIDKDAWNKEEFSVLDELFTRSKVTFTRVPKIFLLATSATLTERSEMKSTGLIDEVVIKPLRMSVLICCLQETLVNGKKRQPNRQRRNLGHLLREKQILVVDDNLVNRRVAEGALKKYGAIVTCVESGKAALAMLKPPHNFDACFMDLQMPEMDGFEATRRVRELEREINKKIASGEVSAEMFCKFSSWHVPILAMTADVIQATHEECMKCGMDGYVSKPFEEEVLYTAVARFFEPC
Method: (§1) A culture solution 10 μl (about 800 clones of yeast) of the transformed cells TM182-CRE1, TM182-AHK2, TM182-AHK2Δ and TM182-AHK3 produced by the example 12 was spotted on DOLU+Glu agar media containing 10 μM of trans-zeatin and cultured at 30° C. for 30 hours. After incubation, the growth state of the transformed cells was observed and photographed by a digital camera.
(§2) Culture solutions of the transformed cells TM182-CRE1, TM182-AHK2Δ and TM182-AHK2 produced by the reference example 1 were spotted on DOLU+Glu agar media containing cytokinin in a variety of concentrations (1 nM, 10 nM, 100 nM, 1 μM, 10 μM, 100 μM) and cultured at 30° C. for 30 hours. After incubation, the growth state of the transformed cells was observed and photographed by a digital camera.

cytokinin receptor CRE1 = cytokinin receptor CRE1 (Arabidopsis thaliana, UniProt Q9C5U0, S567G/T1018A); details: TM182-CRE1, DOLU+Glu agar, 1 nM to 100 μM tested, 30° C. for 30 hours
Chain of cytokinin receptor CRE1 (Q9C5U0 24-1080 S567G/T1018A): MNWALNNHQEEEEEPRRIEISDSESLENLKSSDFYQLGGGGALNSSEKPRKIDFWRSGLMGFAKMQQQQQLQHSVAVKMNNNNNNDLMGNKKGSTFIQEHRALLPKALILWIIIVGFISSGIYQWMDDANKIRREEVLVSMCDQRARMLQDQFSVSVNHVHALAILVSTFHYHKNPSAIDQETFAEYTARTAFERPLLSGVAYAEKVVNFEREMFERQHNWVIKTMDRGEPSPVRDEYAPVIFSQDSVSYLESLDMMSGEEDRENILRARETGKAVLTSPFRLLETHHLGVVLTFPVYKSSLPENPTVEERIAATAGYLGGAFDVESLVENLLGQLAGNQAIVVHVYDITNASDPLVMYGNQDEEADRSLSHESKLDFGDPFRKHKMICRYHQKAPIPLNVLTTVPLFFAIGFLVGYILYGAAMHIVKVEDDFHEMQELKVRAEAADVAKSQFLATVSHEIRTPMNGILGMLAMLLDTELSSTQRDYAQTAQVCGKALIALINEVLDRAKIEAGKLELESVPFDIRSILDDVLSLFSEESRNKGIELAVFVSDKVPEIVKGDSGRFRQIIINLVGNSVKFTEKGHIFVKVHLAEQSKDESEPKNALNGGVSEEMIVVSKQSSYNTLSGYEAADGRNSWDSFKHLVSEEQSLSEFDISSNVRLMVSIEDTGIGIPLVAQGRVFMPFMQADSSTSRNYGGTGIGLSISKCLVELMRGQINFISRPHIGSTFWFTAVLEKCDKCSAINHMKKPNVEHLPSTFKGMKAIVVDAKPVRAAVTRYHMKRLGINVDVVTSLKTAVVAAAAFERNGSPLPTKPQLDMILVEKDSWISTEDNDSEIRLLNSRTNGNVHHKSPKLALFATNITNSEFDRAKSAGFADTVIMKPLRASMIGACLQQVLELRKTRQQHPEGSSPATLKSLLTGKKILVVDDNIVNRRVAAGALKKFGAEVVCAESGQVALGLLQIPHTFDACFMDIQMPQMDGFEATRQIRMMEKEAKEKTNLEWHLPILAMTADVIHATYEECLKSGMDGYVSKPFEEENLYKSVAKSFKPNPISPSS
Method: as §1, §2

cytokinin receptor AHK2 = biological target: T2, cytokinin receptor AHK2 (Arabidopsis thaliana, UniProt Q9C5U2); details: TM182-AHK2, DOLU+Glu agar, 1 nM to 100 μM tested, 30° C. for 30 hours
T2 sequence (Q9C5U2 1-1176): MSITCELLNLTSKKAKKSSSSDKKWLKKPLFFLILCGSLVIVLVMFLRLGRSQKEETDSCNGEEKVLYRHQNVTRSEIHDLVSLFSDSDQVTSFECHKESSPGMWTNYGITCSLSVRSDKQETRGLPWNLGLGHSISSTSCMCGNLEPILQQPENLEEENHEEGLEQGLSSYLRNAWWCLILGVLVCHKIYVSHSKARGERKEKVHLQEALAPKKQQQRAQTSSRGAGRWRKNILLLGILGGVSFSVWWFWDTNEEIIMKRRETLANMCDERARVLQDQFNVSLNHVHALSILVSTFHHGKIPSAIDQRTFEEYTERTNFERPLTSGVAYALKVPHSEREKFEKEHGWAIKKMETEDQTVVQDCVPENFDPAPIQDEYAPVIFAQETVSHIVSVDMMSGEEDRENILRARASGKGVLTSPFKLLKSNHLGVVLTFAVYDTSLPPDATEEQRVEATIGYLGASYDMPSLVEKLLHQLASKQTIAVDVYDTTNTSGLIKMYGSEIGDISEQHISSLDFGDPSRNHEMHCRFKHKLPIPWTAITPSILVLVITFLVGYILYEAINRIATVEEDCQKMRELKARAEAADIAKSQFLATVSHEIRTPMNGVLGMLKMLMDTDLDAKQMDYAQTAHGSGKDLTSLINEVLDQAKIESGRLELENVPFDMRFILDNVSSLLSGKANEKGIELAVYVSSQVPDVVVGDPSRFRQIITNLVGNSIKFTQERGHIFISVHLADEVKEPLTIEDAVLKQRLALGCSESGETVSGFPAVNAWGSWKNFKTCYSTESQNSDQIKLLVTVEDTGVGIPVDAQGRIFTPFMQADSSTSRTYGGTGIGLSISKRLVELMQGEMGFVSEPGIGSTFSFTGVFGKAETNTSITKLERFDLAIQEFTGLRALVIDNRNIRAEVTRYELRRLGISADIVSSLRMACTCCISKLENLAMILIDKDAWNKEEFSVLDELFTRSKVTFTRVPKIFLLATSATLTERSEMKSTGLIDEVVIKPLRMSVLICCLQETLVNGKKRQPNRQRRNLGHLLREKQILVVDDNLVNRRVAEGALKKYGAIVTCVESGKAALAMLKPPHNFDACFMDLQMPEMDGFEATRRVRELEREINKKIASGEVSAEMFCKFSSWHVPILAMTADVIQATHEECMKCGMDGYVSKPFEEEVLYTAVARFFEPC
Method: as §1, §2

## C/C(=C/CNc1ncnc2nc[nH]c12)CO [cis-zeatin]
Cytokinin receptor AHK2Δ
  lowest observed supply concentration in which the transformed cells could be grown: 1 µM
Cytokinin receptor CRE1
  lowest observed supply concentration in which the transformed cells could be grown: no growth
Cytokinin receptor AHK2
  lowest observed supply concentration in which the transformed cells could be grown: 10 µM
